Test results from PubChem BioAssay (NCI).
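Test compounds were applied to cells in 96-well plates for 48 hours at 5 doses. Definition used: TGI = concentration required for complete inhibition of growth.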

How the values were obtained:
Test in all cases: inhibition of tumour cell growth, NCI panel, 48 h
M14 melanoma = tested on: M14 melanoma
SK-MEL-2 melanoma = tested on: SK-MEL-2 melanoma
DU-145 prostate = tested on: DU-145 prostate
SR leukemia = tested on: SR leukemia
SF-539 CNS = tested on: SF-539 CNS
T-47D breast = tested on: T-47D breast
PC-3 prostate = tested on: PC-3 prostate
MALME-3M melanoma = tested on: MALME-3M melanoma
OVCAR-3 ovarian = tested on: OVCAR-3 ovarian
EKVX NSCLC = tested on: EKVX NSCLC
KM12 colon = tested on: KM12 colon
A549 NSCLC = tested on: A549 NSCLC
CAKI-1 renal = tested on: CAKI-1 renal
786-0 renal = tested on: 786-0 renal
HS 578T breast = tested on: HS 578T breast
HCC-2998 colon = tested on: HCC-2998 colon
IGROV1 ovarian = tested on: IGROV1 ovarian
NCI-H226 lung = tested on: NCI-H226 lung
UO-31 renal = tested on: UO-31 renal
SF-268 CNS = tested on: SF-268 CNS
SN12C renal = tested on: SN12C renal
OVCAR-5 ovarian = tested on: OVCAR-5 ovarian
OVCAR-4 ovarian = tested on: OVCAR-4 ovarian
OVCAR-8 ovarian = tested on: OVCAR-8 ovarian
MOLT-4 leukemia = tested on: MOLT-4 leukemia
HOP-62 NSCLC = tested on: HOP-62 NSCLC
SNB-19 CNS = tested on: SNB-19 CNS
K-562 leukemia = tested on: K-562 leukemia
MCF7 breast = tested on: MCF7 breast
MDA-MB-435 = tested on: MDA-MB-435
NCI-H460 lung = tested on: NCI-H460 lung
RPMI-8226 leukemia = tested on: RPMI-8226 leukemia
NCI-H23 lung = tested on: NCI-H23 lung
SK-MEL-28 melanoma = tested on: SK-MEL-28 melanoma
HCT-15 colon = tested on: HCT-15 colon
HT29 colon = tested on: HT29 colon
TK-10 renal = tested on: TK-10 renal
HL-60(TB) leukemia = tested on: HL-60(TB) leukemia
CCRF-CEM leukemia = tested on: CCRF-CEM leukemia
SW-620 colon = tested on: SW-620 colon
HOP-92 NSCLC = tested on: HOP-92 NSCLC
SF-295 CNS = tested on: SF-295 CNS
UACC-257 melanoma = tested on: UACC-257 melanoma
ACHN renal = tested on: ACHN renal
COLO 205 colon = tested on: COLO 205 colon
BT-549 breast = tested on: BT-549 breast
A498 renal = tested on: A498 renal
SK-OV-3 ovarian = tested on: SK-OV-3 ovarian
LOX IMVI melanoma = tested on: LOX IMVI melanoma
NCI/ADR-RES ovarian = tested on: NCI/ADR-RES ovarian
SNB-75 CNS = tested on: SNB-75 CNS
MDA-N = tested on: MDA-N
HCT-116 colon = tested on: HCT-116 colon
SK-MEL-5 melanoma = tested on: SK-MEL-5 melanoma
U251 CNS = tested on: U251 CNS
UACC-62 melanoma = tested on: UACC-62 melanoma
RXF 393 renal = tested on: RXF 393 renal
NCI-H522 lung = tested on: NCI-H522 lung
MDA-MB-231 breast = tested on: MDA-MB-231 breast

NC1C/C(=N\O)c2c(Cl)sc(Cl)c21 (centres undefined)
TGI (M14 melanoma): 34.1 µM | TGI (SK-MEL-2 melanoma): 36.1 µM | TGI (DU-145 prostate): 29 µM | TGI (SR leukemia): > 100 µM | TGI (SF-539 CNS): 22.1 µM | TGI (T-47D breast): 39.7 µM | TGI (PC-3 prostate): 48.8 µM | TGI (MALME-3M melanoma): 34.5 µM | TGI (OVCAR-3 ovarian): 31.8 µM | TGI (EKVX NSCLC): 34 µM | TGI (KM12 colon): 25.5 µM | TGI (A549 NSCLC): > 100 µM | TGI (CAKI-1 renal): 32.2 µM | TGI (786-0 renal): 33.4 µM | TGI (HS 578T breast): > 100 µM | TGI (HCC-2998 colon): > 100 µM | TGI (IGROV1 ovarian): 32 µM | TGI (NCI-H226 lung): 41.4 µM | TGI (UO-31 renal): 34.3 µM | TGI (SF-268 CNS): > 100 µM | TGI (SN12C renal): 35 µM | TGI (OVCAR-5 ovarian): 40 µM | TGI (OVCAR-4 ovarian): 38.4 µM | TGI (OVCAR-8 ovarian): 28.8 µM | TGI (MOLT-4 leukemia): > 100 µM | TGI (HOP-62 NSCLC): 37 µM | TGI (SNB-19 CNS): 94.3 µM | TGI (K-562 leukemia): > 100 µM | TGI (MCF7 breast): 27.5 µM | TGI (MDA-MB-435): 29.5 µM | TGI (NCI-H460 lung): 43.3 µM | TGI (RPMI-8226 leukemia): 65.3 µM | TGI (NCI-H23 lung): 33.7 µM | TGI (SK-MEL-28 melanoma): 33.6 µM | TGI (HCT-15 colon): 33 µM | TGI (HT29 colon): 54.6 µM | TGI (TK-10 renal): 31.4 µM | TGI (HL-60(TB) leukemia): > 100 µM | TGI (CCRF-CEM leukemia): > 100 µM | TGI (SW-620 colon): 33.4 µM | TGI (HOP-92 NSCLC): 42.9 µM | TGI (SF-295 CNS): 91.1 µM | TGI (UACC-257 melanoma): 31.2 µM | TGI (ACHN renal): 36.4 µM | TGI (COLO 205 colon): 61.4 µM | TGI (BT-549 breast): 32.9 µM | TGI (A498 renal): 59.8 µM | TGI (SK-OV-3 ovarian): > 100 µM | TGI (LOX IMVI melanoma): 15.9 µM | TGI (NCI/ADR-RES ovarian): 67.3 µM | TGI (SNB-75 CNS): 76.9 µM | TGI (MDA-N): 33.4 µM | TGI (HCT-116 colon): 20.8 µM

CCOc1cccc(C=Nc2ccccc2SSc2ccccc2N=Cc2cccc(OCC)c2O)c1O
TGI (M14 melanoma): 19.4 µM | TGI (SK-MEL-2 melanoma): 37.7 µM | TGI (DU-145 prostate): 30.9 µM | TGI (SR leukemia): 28.2 µM | TGI (SF-539 CNS): 80.2 µM | TGI (T-47D breast): 10.7 µM | TGI (PC-3 prostate): 12.8 µM | TGI (MALME-3M melanoma): 23.6 µM | TGI (OVCAR-3 ovarian): 8.16 µM | TGI (EKVX NSCLC): 19 µM | TGI (KM12 colon): 19.6 µM | TGI (A549 NSCLC): 26.6 µM | TGI (SK-MEL-5 melanoma): 7.58 µM | TGI (CAKI-1 renal): 29.3 µM | TGI (786-0 renal): 19.8 µM | TGI (HS 578T breast): 90.7 µM | TGI (HCC-2998 colon): 44.1 µM | TGI (IGROV1 ovarian): 15.9 µM | TGI (NCI-H226 lung): 22.5 µM | TGI (U251 CNS): 13.2 µM | TGI (UO-31 renal): 26.6 µM | TGI (SF-268 CNS): 21.5 µM | TGI (SN12C renal): 35.7 µM | TGI (OVCAR-5 ovarian): 14.6 µM | TGI (OVCAR-4 ovarian): 14.3 µM | TGI (OVCAR-8 ovarian): 8.33 µM | TGI (MOLT-4 leukemia): 10.4 µM | TGI (HOP-62 NSCLC): 30.9 µM | TGI (SNB-19 CNS): 47.4 µM | TGI (K-562 leukemia): 27.6 µM | TGI (UACC-62 melanoma): 22 µM | TGI (MDA-MB-435): 23.7 µM | TGI (RXF 393 renal): 34.9 µM | TGI (NCI-H460 lung): 20.1 µM | TGI (RPMI-8226 leukemia): 35.9 µM | TGI (NCI-H23 lung): 20.3 µM | TGI (NCI-H522 lung): 10.4 µM | TGI (SK-MEL-28 melanoma): 26.2 µM | TGI (HCT-15 colon): 12.9 µM | TGI (HT29 colon): 28.9 µM | TGI (TK-10 renal): 51.4 µM | TGI (HL-60(TB) leukemia): 14.8 µM | TGI (MDA-MB-231 breast): 35 µM | TGI (CCRF-CEM leukemia): 12.2 µM | TGI (SW-620 colon): 23.1 µM | TGI (HOP-92 NSCLC): 33.3 µM | TGI (SF-295 CNS): 37.6 µM | TGI (UACC-257 melanoma): 21.2 µM | TGI (ACHN renal): 29.3 µM | TGI (COLO 205 colon): 12.4 µM | TGI (BT-549 breast): 8.19 µM | TGI (A498 renal): 44 µM | TGI (SK-OV-3 ovarian): 52 µM | TGI (LOX IMVI melanoma): 14.9 µM | TGI (NCI/ADR-RES ovarian): > 100 µM | TGI (SNB-75 CNS): 56 µM | TGI (MDA-N): 37.7 µM | TGI (HCT-116 colon): 11.2 µM

CCN(CCCl)c1cc(CN(C)C)cc(NC(=O)c2ccc(C(=O)Nc3cc(CN(C)C)cc(N(CC)CCCl)c3)cc2)c1
TGI (M14 melanoma): 0.926 µM | TGI (SK-MEL-2 melanoma): 3.23 µM | TGI (DU-145 prostate): 13.7 µM | TGI (SR leukemia): 18.1 µM | TGI (SF-539 CNS): 0.815 µM | TGI (T-47D breast): 15.4 µM | TGI (PC-3 prostate): 2.4 µM | TGI (MALME-3M melanoma): 0.88 µM | TGI (OVCAR-3 ovarian): 2.66 µM | TGI (EKVX NSCLC): 5.58 µM | TGI (KM12 colon): 1.36 µM | TGI (A549 NSCLC): 3.89 µM | TGI (SK-MEL-5 melanoma): 0.328 µM | TGI (CAKI-1 renal): 1.74 µM | TGI (786-0 renal): 1.3 µM | TGI (HS 578T breast): 0.761 µM | TGI (HCC-2998 colon): 0.311 µM | TGI (IGROV1 ovarian): 0.732 µM | TGI (NCI-H226 lung): 0.251 µM | TGI (U251 CNS): 1.64 µM | TGI (UO-31 renal): 11.6 µM | TGI (SF-268 CNS): 0.749 µM | TGI (SN12C renal): 1.53 µM | TGI (OVCAR-5 ovarian): 0.966 µM | TGI (OVCAR-4 ovarian): 9.46 µM | TGI (OVCAR-8 ovarian): 1.63 µM | TGI (MOLT-4 leukemia): 0.248 µM | TGI (HOP-62 NSCLC): 0.966 µM | TGI (SNB-19 CNS): 0.936 µM | TGI (K-562 leukemia): 1.6 µM | TGI (UACC-62 melanoma): 0.273 µM | TGI (MCF7 breast): 0.241 µM | TGI (MDA-MB-435): 0.48 µM | TGI (RXF 393 renal): 0.109 µM | TGI (NCI-H460 lung): 1.54 µM | TGI (RPMI-8226 leukemia): 1.02 µM | TGI (NCI-H23 lung): 0.472 µM | TGI (NCI-H522 lung): 0.234 µM | TGI (SK-MEL-28 melanoma): 0.536 µM | TGI (HCT-15 colon): 29.5 µM | TGI (HT29 colon): 3.55 µM | TGI (TK-10 renal): 2.57 µM | TGI (HL-60(TB) leukemia): 1.09 µM | TGI (MDA-MB-231 breast): 1.36 µM | TGI (CCRF-CEM leukemia): 1.01 µM | TGI (SW-620 colon): 1.92 µM | TGI (HOP-92 NSCLC): 0.662 µM | TGI (SF-295 CNS): 1.21 µM | TGI (UACC-257 melanoma): 1.32 µM | TGI (ACHN renal): 0.994 µM | TGI (COLO 205 colon): 0.551 µM | TGI (BT-549 breast): 0.683 µM | TGI (SK-OV-3 ovarian): 5.82 µM | TGI (LOX IMVI melanoma): 0.712 µM | TGI (NCI/ADR-RES ovarian): > 100 µM | TGI (SNB-75 CNS): 0.506 µM | TGI (MDA-N): 0.594 µM | TGI (HCT-116 colon): 1.06 µM
